Key:
[1] = tested on: DA neurons in the rat SN; assay: 8-oxo-dG immunostaining in the SN of 6-OHDA-treated rats; format: in vivo; conditions: striatal injection
Method: The experiments were carried out on rats, in accordance with the NIH Guide for the Care and Use of Laboratory Animals. All procedures were approved by the local Animal Care and Use Committee. Female Sprague Dawley (SD) rats (Charles River; 8-weeks-old at the time of the beginning of AAV expression or 6-OHDA treatment, 2 or 3 per cage) were maintained in a temperature/humidity-controlled environment under a 12 h light/dark cycle with free access to food and water. All rats were respectively allocated into […], Nox1 shRNA/AAV, T17N Rac1/AAV, and scramble (scb) shRNA/AAV or empty vector/AAV as control groups. Rats were deeply anesthetized (ketamine and xylazine mixture 30 mg/kg, i.p.) and placed in a rat stereotaxic apparatus, a site in the right substantia nigra (SN) [coordinate: anteroposterior (AP), −5.3 mm; mediolateral (ML), +2.0 mm; dorsoventral (DV), −5.8 mm] was selected to inject scb shRNA/AAV (n=8), Nox1 shRNA/AAV (n=16), T17N Rac1/AAV (n=16), and empty vector/AAV (n=28), respectively, according to the grouping. […]
Rats were deeply anesthetized with sodium pentobarbital (120 mg/kg) and transcardially perfused with saline containing 0.5% sodium nitrite and 10 U/ml heparin sulfate, followed by 4% cold formaldehyde generated from paraformaldehyde in 0.1 M PBS (pH 7.2). […] Mounted slices were evaluated on light microscope.

[2] = tested on: Nox1; assay: Nox1 immunostaining in rat SN after striatal 6-OHDA; format: in vivo
Method: The experiments were carried out on rats, in accordance with the NIH Guide for the Care and Use of Laboratory Animals. All procedures were approved by the local Animal Care and Use Committee. Female Sprague Dawley (SD) rats (Charles River; 8-weeks-old at the time of the beginning of AAV expression or 6-OHDA treatment, 2 or 3 per cage) were maintained in a temperature/humidity-controlled environment under a 12 h light/dark cycle with free access to food and water. All rats were respectively allocated into […], Nox1 shRNA/AAV, T17N Rac1/AAV, and scramble (scb) shRNA/AAV or empty vector/AAV as control groups. […]
Free-floating sections (40 μm) were washed in 0.1 M PBS, incubated in 0.1 M PBS containing 5% normal donkey serum and 0.3% TritonX-100 for 1 h, and subsequently incubated overnight with primary antibodies (TH, 1:2,000; Nox1, 1:200; GFAP, 1:500; CD11b, 1:200) in 2% normal donkey serum in PBS at 4° C. and incubated in a 1:200 dilution of AlexaFluor conjugated donkey anti-rabbit (546) or donkey anti-mouse (488) antibodies for 1 h at room temperature, washed with PBS, incubated in TOTO-3 (1:1,000) in 0.1 M PBS for 5 min, and then mounted sequentially in glass slides using Vectashield. Mounted slices were evaluated for fluorescence under settings for 546, 488, and 660 nm emissions on a confocal microscope (Leica TCS SP5).

[3] = tested on: α-synuclein; assay: α-Synuclein protein levels (immunoblot) in N27 cells exposed to PQ; format: cell-based, rat
Method: The N27 cells were grown in RPMI 1640 medium containing 10% fetal bovine serum (FBS), 100 U penicillin, and 50 μg/ml streptomycin, in a humidified atmosphere of 5% CO2 at 37° C. N27 cultures were prepared for experiments by plating the cells on polystyrene tissue culture dishes at a density of 0.5×10^5 cells/well in 24-well culture plates with glass coverslip and at 1.5×10^5 cells/well in 6-well culture plates.
For Western blot, brain tissues were lysed on ice in radioimmunoprecipitation assay buffer containing 50 mMTris/HCl, pH 8.0, 150 mM NaCl, 2 mM sodium orthovanadate, 1% Nonidet-P40 (NP-40), 0.5% sodium deoxycholate, and 0.1% SDS, containing 1% of a protease inhibitor mixture (AEBSF, pepstatinA, E-64, bestatin, leupeptin, and aprotinin). The soluble fraction was obtained and equal amounts of cell lysate protein were loaded in each lane of a 12% SDS-PAGE or 4/10% to 20% polyacrylamide gel. After electrophoresis and transfer onto a polyvinylidene difluoride (PVDF) membrane, specific protein bands were detected using appropriate primary antibodies (rabbit anti-Nox1, rabbit anti-α-synuclein, mouse anti-Ubiquitin, mouse anti-tyrosine hydroxylase (TH), and mouse anti-β-actin) and secondary antibodies conjugated to alkaline phosphatase or […] peroxidase (anti-rabbit or anti-mouse) followed by Enhanced Chemifluorescence (ECF) detection or Enhanced Chemiluminescence (ECL).

| Compound | DNA oxidative damage (8-oxo-dG immunoreactivity in the nucleus) caused by toxin [1] | Nox1 expression in the substantia nigra vs vehicle ([2]; 3 days after striatal injection) | TH-positive neurons showing Nox1 nuclear staining ([2]; rat SN after 6-OHDA administration) | increase of α-synuclein protein levels ([3]; 800 μM, 8 h) [%] | increase of α-synuclein protein levels ([3]; 800 μM, 24 h) [%] | increase of α-synuclein protein levels ([3]; 1000 μM, 8 h) [%] | increase of α-synuclein protein levels ([3]; 1000 μM, 24 h) [%] |
| --- | --- | --- | --- | --- | --- | --- | --- |
| NCCc1cc(O)c(O)cc1O [6-OHDA, 6-hydroxydopamine] | increased DNA oxidative damage | significant increase | About 75% |  |  |  |  |
| C[n+]1ccc(-c2cc[n+](C)cc2)cc1 [PQ, paraquat] |  |  |  | 55 | 61 | 60 | 27 |
